In patent US20140120181A1, “COMPOSITION COMPRISING PHOSPHATIDYLCHOLINE AS AN ACTIVE INGREDIENT FOR ATTENUATING TOXICITY OF ANTICANCER AGENT” (AMI Pharm Co., Ltd., priority 2011, published 2014):
“Also recorded” adds a separate entry of the source.

What was measured:
ICR mice = assay: Lethality reducing effect by paclitaxel (LD50 of paclitaxel with PC pretreatment); type: in vivo; conditions: PC 0, 300, 600 mg/kg i.p. 4 hours before Taxol i.p.; lethality after 24 hours, FIG. 8; listed as phosphatidylcholine
Procedure: 6-week aged ICR mice (Samtako, Korea) were bought, and divided into 15 groups noted in table 5. They were stabilized for 20 hrs under conditions of 24±2° C., and 12-hour light-dark cycles while being fed with non-antibiotic general solid feed. […] After being stabilized, the mice were intra-peritoneally injected with the same phosphatidylcholine as that used in <Example 1-1>. After 4 hours, Taxol™ (BMS©, paclitaxel 6 mg/ml) was intra-peritoneally injected to the mice in which its amount was adjusted in such a manner that paclitaxel can be administered in an amount noted in table 5 below.
After 24 hours from administration of taxol, lethality of mice was measured. Based on the measured data on lethality, LD50 (a paclitaxel dose at lethality of 50%) in each of A, B, and C groups was measured.

[1] = system: BUN (blood urea nitrogen) and creatinine; assay: Test on a kidney function (serum BUN and creatinine), cisplatin nephrotoxicity, intra-peritoneal PC; type: in vivo, SD rats; conditions: PC i.p. 1 hour after CDDP 5 mg/kg i.p.
Procedure: The separated serum was used to measure BUN (blood urea nitrogen) and creatinine.
The measurement of BUN was carried out by using a BUN measuring kit (Young dong diagnostics) in the same manner as described below. A urea agent 0.1 ml was mixed with buffer 20 ml to prepare enzyme buffer, and the prepared enzyme buffer was added to each of 2 test tubes. To one of the test tubes, a to-be-tested serum sample 0.02 ml was added, and to the other test tube, a control reference solution [containing urea-N 60 mg/100 ml] 0.02 ml was added, followed by culturing at 37° C. for 15 min. Then, each test tube was added with chromogenic solution 2 ml, and cultured at 37° C. for 5 min again. By measuring the absorbance at 570 nm, the level of produced BUN was measured.
The measurement of creatinine was carried out by using a creatinine measuring kit (young dong diagnostics) in the same manner as described below. […] Exactly after 15 min, at 515 nm, absorbency was measured.

[2] = Measurement of body weight change during the test period; type: in vivo, SD rats; conditions: for change of body weight: 6 days
Procedure: 6-week aged male SD rats (albino S.D rat) were bought, stabilized for 1 week, and then divided into 6 groups noted in [table 1] for the test. Breeding environment conditions of 24±2° C., and 12-hour light-dark cycles were maintained, and non-antibiotic general solid feed was used.
For all groups, an agent was administered through intraperitoneal injection.
They were bred while changes in their body weights were measured for 6 days. Then, after they were euthanized, their blood samples 5 cc were collected by a cardiac puncture, and their kidneys were extracted for used in a test.
During the test period, a body weight of the test group was measured.

rats = assay: Lethality after 6 days, CDDP with or without PC; type: in vivo, SD rats; conditions: PC 400 mg/kg i.p. alone (group 8)
Procedure: As noted in [table 3], a test group was prepared, and administered with a drug. After 6 days, lethality was calculated. An administration method, a test animal and a breeding method, etc. were the same as those in Example <1-1>.

[3] = system: GSH (glutathione) in kidney tissue; assay: Quantification of GSH (glutathione) in kidney tissue; type: in vivo, Wistar-Hanover rats; conditions: cisplatin 6 mg/kg i.p. only (group 13), FIG. 6
Procedure: (§1) Kidney samples collected from example <2-1> were immediately removed, washed in 0.9% saline and weighed. The kidneys were the mince with scissors, were homogenized in 0.1M Tris-HCl buffer (pH 7.4). The homogenization was carried out in Teflon-glass homogenizer (Bandelin, Germany) to obtain 1:10 (w/v) dilution. The homogenate was stored at −70° C. until analysis.
The total GSH content of kidney tissue prepared in the Example <2-3> was determined using a modification of the method of Beutler et al. (Beutler, Duron et al. 1963). The method uses principle that when DTNB (5′5-dithiobis-2-nitro-benzoic acid) and GHS react, 2-nitro-5-thiobenzoic acid (yellow color) are produced. Therefore, the concentration of GSH can be determined by measuring absorbance at 412 nm.
A mitochondrial fraction was prepared by centrifugation at 600 g for 5 mins and samples were added to 5% of metaphosphoric acid (MPA) and allowed to stand for 5 mins to precipitate proteins. 1M of Phosphate buffer (pH 7.0) was added to proteins in the volumetric ratio of 1:4 for homogenization and DTNB (5′5-dithiobis-2-nitro-benzoic acid) were added to proteins in the volumetric ratio of 8:5 for color development. GSH was determined by measuring absorbance at 415 nm (shimadzu UV-1240) and absolute concentrations were calculated using a GSH standard (Sigma, USA).

[4] = system: MDA (malondialdehyde) in kidney tissue; assay: Quantification of lipid peroxidation (MDA) in kidney tissue; type: in vivo, Wistar-Hanover rats; conditions: cisplatin 6 mg/kg i.p. only (group 13), FIG. 5
Procedure: as §1
Degradation products of lipid peroxidate comprise a lot of carbonyl compounds and the representative is malondialdehyde, MDA. Therefore, the level of lipid peroxidation can be measured by quantification of MDA.
For quantification of MDA, the method of Buege and Aust (1978) were used. The samples were centrifuged at 12,000 g at 4° C. for 15 min, then 0.3 ml supernatant was removed and mixed with 0.9 ml of 8% trichloroacetic acid (TCA). The sample was again centrifuged at 10,000 g at 4° C. for 5 min. A 1 ml aliquot of supernatant was added to 0.25 ml of 1% TBA, and the resulting solution was heated at 100° C. for 20 min. […] After centrifugation at 3,000 g at 4° C. for 5 min, 1 ml of the n-butanol phase was isolated and the absorbance at 532 nm was measured. The standard curve of MDA was calculated from the absorbance and the amount of MDA per weight of tissue was measured and it is shown in FIG. 5A.
MDA content was calculated with MDA standards (Buege and Aust 1978).

kidney tissues = assay: Observation of a morphological change in kidney tissues (H&E, optical microscope); type: in vivo, SD rats; conditions: CDDP 5 mg/kg i.p. alone (group 3), FIG. 3-B
Source text: A rats kidney obtained from Example <1-1> was fixed in 10% neutral formalin, sliced by microtechnique, and subjected to haematoxylin & eosin staining through a general tissue processing process. Each of the stained kidney tissues was observed by an optical microscope.

[5] = system: catalase, GPx (glutathione peroxidase), SOD (superoxide dismutase); assay: Activity of catalase, GPx, SOD in kidney tissue; type: in vivo, Wistar-Hanover rats; conditions: cisplatin 6 mg/kg i.p. only (group 13), FIG. 7
Procedure: as §1
The activities of catalase, GPx, SOD which are anti-oxidative enzymes in kidney tissue were measured by a commercial kit.
Since catalase decomposes H2O2 into water and oxygen, the activity of CAT was measured through decreased absorbance by decomposition of H2O2. The absorbance was measured by using catalase assay kit (Sigma, CAT #100).
The activity of GPx was measured by using Glutathione peroxidase cellular activity assay kit CGP-1 (Sigma Aldrich, Cat. #CGP1). […] The decrease in NADPH absorbance measured at 340 nm, during the oxidation of NADPH to NADP is was indicative of GPx activity.
The activity of SOD is measured using the SOD assay kit (19160 SOD determination kit, Fluka/sigma Aldrich). The amount inhibiting 50% of xanthine oxidase activity per 1 mg of protein was set as 1 unit and the absorbance was measured at 450 nm.

[6] = system: BUN (blood urea nitrogen) and creatine; assay: Analysis of kidney function (serum BUN and creatine), oral administration of PC; type: in vivo, Wistar-Hanover rats; conditions: cisplatin 6 mg/kg i.p. alone (group 13), 6 days, FIG. 4
Procedure: Cisplatin and phosphatidylcholne were used as same as Example 1. But, phosphatidylcholne was suspended in 100 mg/ml of distilled water.
Thirty-six of 6-week-old adult male Wistar-Hanover rats (Nara-biotechnology, Seoul, Korea) were purchased and quarantined for 1 week and divided into 6 groups as shown in Table 4. They were maintained at 22±2° C. in 12 hour light dark cycle, and were given a normal laboratory diet (Purina. Korea) and fresh water ad libitum. Their body weight were 200˜220 g. After quarantine period, rats were fasted for 24 hours prior to injection of first phosphatidylcholine, but were allowed free access to water throughout.
In all groups, saline and cisplatin were injected intraperitoneally and phosphatidylcholine was administered orally. […]
Blood collected in Example <2-1> was centrifuged at 4000 rpm for 10 min and serum was separated. The level of BUN (blood urea nitrogen) and creatine in serum was measured.
The level of BUN was measured by Urase-GLDH method (Laboratory reference values. Urea nitrogen (BUN). Rochester, Minn.: Mayo Foundation for Medical Education and Research; November 2010), creatine was measured by Jaffe method (Jaffe method, Lamb E et al, tiez textbook of clinical chemistry and molecular diagnosis, St. louis; elsevier saunders, 2006; 791-801) and the contents were measured Beckman Coulter AU5421 (Beckman Coulter, USA).

SMILES	LD50 of paclitaxel (ICR mice)	PC dose at which nephrotoxicity caused by CDDP was reduced [1] [mg/kg]	change of body weight ([2]; PC 400 mg/kg i.p. alone (group 2))	lethal rate (rats) [%]	level of glutathione in kidney tissue [3]	MDA level in kidney tissue [4]	morphological change in kidney tissues (kidney tissues)	levels of the anti-oxidative enzymes (catalase, GPx, SOD) in kidney tissue [5]	change of body weight ([2]; CDDP 5 mg/kg i.p. alone (group 3)) [%]	change of body weight ([2]; CDDP 5 mg/kg i.p. alone (group 3), listed as cisplatin)	body weight decreased by ([2]; CDDP 5 mg/kg i.p. alone (group 3), test period)	BUN level in serum [6]	creatine level in serum [6]
CCCCC/C=C/CCCCCCCC(=O)OC(COC(=O)CCCCCCCCCCCCC)COP(=O)([O-])OCC[N+](C)(C)C [PC, 1,2-diacyl-L-3-glycerylphosphorylcholine]	tends to increase; also recorded: increases depending on dosage of phosphatidylcholine	≥ 600	+9.2%	0									
N.N.[Cl][Pt][Cl] [CDDP, cis-dichlorodiammineplatinum]					significantly low compared to control group 11	very high compared to control group 11	most epithelial cells in a proximal part and a distal part of the kidney showed a necrotic change through an inflammatory reaction	significantly reduced compared to control group 11	−7.1	reduction in body weight	about 7.1%	increase	increase
